Results: paper PMC2932959 (Journal of medicinal chemistry, 2010)

Legend:
NET = format: binding, rat; settings: selectivity ratio for SERT over NET
DAT = DAT (Rattus norvegicus, UniProt P23977); format: binding
DAT, sequence (P23977 whole entry): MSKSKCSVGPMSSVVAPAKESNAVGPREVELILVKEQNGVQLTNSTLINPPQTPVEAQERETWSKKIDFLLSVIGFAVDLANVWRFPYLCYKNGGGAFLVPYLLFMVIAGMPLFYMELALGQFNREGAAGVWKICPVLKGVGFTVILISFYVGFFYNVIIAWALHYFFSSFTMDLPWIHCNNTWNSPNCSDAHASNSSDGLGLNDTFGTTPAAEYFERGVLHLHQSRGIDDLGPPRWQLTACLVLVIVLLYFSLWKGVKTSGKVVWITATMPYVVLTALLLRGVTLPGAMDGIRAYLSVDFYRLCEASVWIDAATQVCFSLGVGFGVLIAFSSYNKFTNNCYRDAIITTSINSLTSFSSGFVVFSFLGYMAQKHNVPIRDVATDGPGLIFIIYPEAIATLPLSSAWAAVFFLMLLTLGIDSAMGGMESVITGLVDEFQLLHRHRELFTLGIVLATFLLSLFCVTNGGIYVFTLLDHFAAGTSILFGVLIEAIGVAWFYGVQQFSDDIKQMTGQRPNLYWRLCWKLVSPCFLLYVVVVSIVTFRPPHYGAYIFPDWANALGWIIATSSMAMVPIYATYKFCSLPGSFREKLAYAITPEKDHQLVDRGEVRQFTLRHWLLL

SMILES	Ki(NET)/Ki (SERT) (NET)	Ki (DAT)	Ki(DAT)/Ki (SERT) (DAT; selectivity ratio for SERT over DAT)
CN(C)CCCC1(c2ccc(F)cc2)OCc2cc(-c3cccc(F)c3)ccc21 (stereo not shown) [Compound 15, 3-(5-(3-Fluorophenyl)-1-(4-fluorophenyl)-1,3-dihydroisobenzofuran-1-yl)-N,N-dimethylpropan-1-amine]	193	–	–
CN(C)CCCC1(c2ccc(F)cc2)OCc2cc(-c3cc(F)cc(F)c3)ccc21.O=C(O)C(=O)O (stereo not shown) [Compound 13, 3-(5-(3,5-Difluorophenyl)-1-(4-fluorophenyl)-1,3-dihydroisobenzofuran-1-yl)-N,N-dimethylpropan-1-amine oxalate]	19	–	–
CN(C)CCCC1(c2ccc(F)cc2)OCc2cc(CCc3ccccc3)ccc21 (stereo not shown) [Compound 14, 3-(1-(4-Fluorophenyl)-5-phenethyl-1,3-dihydroisobenzofuran-1-yl)-N,N-dimethylpropan-1-amine]	122	–	–
CN(C)CCCC1(c2ccc(F)cc2)OCc2cc(Br)ccc21 (stereo not shown) [Compound 5, 3-(5-bromo-1-(4-fluorophenyl)-1,3-dihydroisobenzofuran-1-yl)-N,N-dimethylpropan-1-amine]	>10,000	1650 ± 112 nM	1590
COc1cccc(-c2ccc3c(c2)COC3(CCCN(C)C)c2ccc(F)cc2)c1 (stereo not shown) [Compound 11, 3-(1-(4-Fluorophenyl)-5-(3’-methoxyphenyl)-1,3-dihydroisobenzofuran-1-yl)-N,N-dimethylpropan-1-amine]	284	–	–
